The record followed here is US20100317607A1, “USE OF COMPOUNDS FOR PREPARING ANTI-TUBERCULOSIS AGENTS” (INFECTIOUS DISEASE RESEARCH INSTITUTE, priority 2007, published 2010).

Molecules are shown by their SMILES. ≈ marks a conversion by molar mass, not a printed value. Where a name gives a salt, the structure may show the parent alone. Read-outs that look alike come from different tables or passages of the source. Where only a bound is given, the exact number is not on record here.

Test [1] relates to non replicating phase of M. tuberculosis (H37Rv with a plasmid with an acetimidase promoter driving a luciferase gene). As to the kind of experiment: microbe, parasite or virus in culture. Type of test: cell-based. The conditions noted are these: non replicating M. tuberculosis H37Rv luciferase strain; for MIC: Mycobacterium tuberculosis, read-out: LORA (TB growth inhibition, MIC).

The test system of test [2] is H37Rv strain of M. tuberculosis. As to the kind of experiment: Alamar Blue Susceptibility Test (MABA). Type of test: cell-based. The conditions noted are these: for MIC: Mycobacterium tuberculosis, read-out: MABA (TB growth inhibition, colourimetric assay). (In general: Alamar Blue is a resazurin reagent that responds to reducing activity.)
The mark [3] stands for this setting: H37Rv strain of M. tuberculosis, Alamar Blue.

For the compound `c1ccc(CNc2nc(N3CCCCC3)nc3ccccc23)cc1` [Compound 4, N-Benzyl-2-(piperidin-1-yl)quinazolin-4-amine], the MIC in test [1] is 10 to 50 µM (≈ 3.18 to 15.9 µg/mL); in test [2] (setting [3]), less than 10 µM.
As for `c1ccc(CNc2nc(N3CCOCC3)nc3ccccc23)cc1` [Compound 5, N-Benzyl-2-morpholinoquinazolin-4-amine], the MIC in test [1] and in test [2] (setting [3]) was 50 to 128 µM (≈ 16 to 41 µg/mL) each time.
On to `CN1CCN(c2nc(NCc3ccccc3)c3ccccc3n2)CC1` [Compound 6, N-Benzyl-2-(4-methylpiperazin-1-yl)quinazolin-4-amine hydrochloride], for which the MIC in test [1] and in test [2] (setting [3]) was 50 to 128 µM each time.
For `CC(Nc1nc(N2CCNCC2)nc2ccccc12)c1ccccc1` (stereo not shown) [Compound 8, N-(1-Phenylethyl)-2-(piperazin-1-yl)quinazolin-4-amine], the MIC in test [1] was in the range of 10 to 50 µM (≈ 3.33 to 16.7 µg/mL); in test [2] (setting [3]), 50 to 128 µM (≈ 16.7 to 42.7 µg/mL).
As to `CC(Nc1nc(N2CCOCC2)nc2ccccc12)c1ccccc1` (stereo not shown) [Compound 9, 2-Morpholino-N-(1-phenylethyl)quinazolin-4-amine], the MIC in test [1] and in test [2] (setting [3]) was 50 to 128 µM (≈ 16.7 to 42.8 µg/mL) each time.
Consider `CC(Nc1nc(N2CCN(S(C)(=O)=O)CC2)nc2ccccc12)c1ccccc1` (stereo not shown) [Compound 10, 2-(4-(Methylsulfonyl)piperazin-1-yl)-N-(1-phenylethyl)quinazolin-4-amine], for which the MIC in test [1] lay within 10 to 50 µM (≈ 4.12 to 20.6 µg/mL); in test [2] (setting [3]) it was 50 to 128 µM (≈ 20.6 to 52.7 µg/mL).
Consider `CC(Nc1nc(N2CCCCC2)nc2ccccc12)c1ccccc1` (stereo not shown) [Compound 12, N-(1-Phenylethyl)-2-(piperidin-1-yl)quinazolin-4-amine], for which the MIC in test [1] and in test [2] (setting [3]) was 10 to 50 µM (≈ 3.32 to 16.6 µg/mL) in each case.
With `c1coc(CNc2nc(N3CCCCC3)nc3ccccc23)c1` [Compound 13, N-(Furan-2-ylmethyl)-2-(piperidin-1-yl)quinazolin-4-amine], the MIC is 10 to 50 µM (≈ 3.08 to 15.4 µg/mL) in test [1] and less than 10 µM in test [2] (setting [3]).
As to `CC(Nc1nc(N2CCCC2)nc2ccccc12)c1ccccc1` (stereo not shown) [Compound 14, N-(1-Phenylethyl)-2-(pyrrolidin-1-yl)quinazolin-4-amine], the MIC in test [1] and in test [2] (setting [3]) was 10 to 50 µM (≈ 3.18 to 15.9 µg/mL) in each case.
Consider `CC(Nc1nc(N2CCN(S(=O)(=O)c3ccccc3)CC2)nc2ccccc12)c1ccccc1` (stereo not shown) [Compound 15, N-(1-Phenylethyl)-2-(4-(phenylsulfonyl)piperazin-1-yl)quinazolin-4-amine], for which the “LORA (TB growth inhibition, MIC)” value in test [1] is given as “−”. The MIC in test [2] (setting [3]) lay in the range of 50 to 128 µM (≈ 23.7 to 60.6 µg/mL).
Turning to `c1ccc2c(NC3C4CC5CC(C4)CC3C5)nc(N3CCOCC3)nc2c1` (stereo not shown) [Compound 16, N-(2′-Adamantyl)-2-morpholinoquinazolin-4-amine], the “LORA (TB growth inhibition, MIC)” value in test [1] is on record as “+++ (10-50 μM=+++)”. The “MABA (TB growth inhibition, colourimetric assay)” value in test [2] (setting [3]) is “+++ (10-50 μM=+++)”.
As to `COc1cc2nc(N3CCOCC3)nc(NCc3ccccc3)c2cc1OC` [Compound 17, N-Benzyl-6,7-dimethoxy-2-morpholinoquinazolin-4-amine], in test [1], the “LORA (TB growth inhibition, MIC)” value was “−”. Also, in test [2] (setting [3]), the MIC was 50 to 128 µM (≈ 19 to 48.7 µg/mL).
As to `c1ccc(CNc2nc(NCc3ccccc3)c3ccccc3n2)cc1` [Compound 18, N^2,N^4-Dibenzylquinazoline-2,4-diamine], the MIC in test [1] and in test [2] (setting [3]) was 10 to 50 µM (≈ 3.4 to 17 µg/mL) in each case.
In the case of `c1ccc2c(NC3C4CC5CC(C4)CC3C5)nc(N3CCOCC3)nc2c1` (stereo not shown) [Compound 19, 2-Morpholino-N-(1-[2′-adamantyl])quinazolin-4-amine], the “LORA (TB growth inhibition, MIC)” value in test [1] is given as “+++ (10-50 μM=+++)”. Further, the “MABA (TB growth inhibition, colourimetric assay)” value in test [2] (setting [3]) is “+++ (10-50 μM=+++)”.
With `Fc1ccc(Nc2nc(N3CCCC3)nc3nccnc23)cc1` [Compound 185, N-(4-Fluorophenyl)-2-(pyrrolidin-1-yl)pteridin-4-amine], the MIC in test [2] (setting [3]) lay within 50 to 128 µM (≈ 15.5 to 39.7 µg/mL).
As to `c1ccc2c(c1)CCN(c1nc(N3CCCC3)nc3ccccc13)C2` [Compound 186, 4-(3,4-Dihydroisoquinolin-2(1H)-yl)-2-(pyrrolidin-1-yl)quinazoline], the MIC in test [2] (setting [3]) lay within 10 to 50 µM (≈ 3.3 to 16.5 µg/mL).
Regarding `c1csc(CNc2nc(N3CCCC3)nc3ccccc23)c1` [Compound 187, 2-(Pyrrolidin-1-yl)-N-(thiophen-2-ylmethyl)quinazolin-4-amine], the MIC in test [2] (setting [3]) was 10 to 50 µM (≈ 3.1 to 15.5 µg/mL).
Take `COc1cc2c(cc1OC)CN(c1nc(N3CCCC3)nc3ccccc13)CC2` [Compound 188, 4-(6,7-Dimethoxy-3,4-dihydroisoquinolin-2(1H)-yl)-2-(pyrrolidin-1-yl)quinazoline]: in test [2] (setting [3]), the MIC fell in the range of 10 to 50 µM (≈ 3.9 to 19.5 µg/mL).
Take `Clc1ccc(CNc2nc(N3CCCCC3)nc3ccccc23)s1` [Compound 189, N-((5-Chlorothiophen-2-yl)methyl)-2-(piperidin-1-yl)quinazolin-4-amine]: the MIC in test [2] (setting [3]) is less than 10 µM.
Regarding `c1ccc2c(NCc3ccoc3)nc(N3CCCCC3)nc2c1` [Compound 190, N-(Furan-3-ylmethyl)-2-(piperidin-1-yl)quinazolin-4-amine], the MIC in test [2] (setting [3]) was 10 to 50 µM (≈ 3.08 to 15.4 µg/mL).
For the compound `c1ccc2c(NCc3ccsc3)nc(N3CCCCC3)nc2c1` [Compound 191, 2-(Piperidin-1-yl)-N-(thiophen-3-ylmethyl)quinazolin-4-amine], the MIC in test [2] (setting [3]) is 10 to 50 µM (≈ 3.24 to 16.2 µg/mL).
As to `COc1cc2c(cc1OC)CN(c1nc(N3CCCCC3)nc3ccccc13)CC2` [Compound 192, 4-(6,7-Dimethoxy-3,4-dihydroisoquinolin-2(1H)-yl)-2-(piperidin-1-yl)quinazoline], the MIC in test [2] (setting [3]) is 10 to 50 µM (≈ 4.05 to 20.2 µg/mL).
With `Fc1ccc(CNc2nc(N3CCc4ccc(Br)cc4C3)nc3ccccc23)cc1` [Compound 193, 2-(7-Bromo-3,4-dihydroisoquinolin-2(1H)-yl)-N-(4-fluorobenzyl)quinazolin-4-amine], the MIC in test [2] (setting [3]) lay in the range of 10 to 50 µM (≈ 4.63 to 23.2 µg/mL).
For `Clc1ccc(CNc2nc(N3CCCCC3)nc3ccccc23)cn1` [Compound 194, N-((6-Chloropyridin-3-yl)methyl)-2-(piperidin-1-yl)quinazolin-4-amine hydrochloride], the MIC in test [2] (H37RV) lay in the range of 10 to 50 µM.
Regarding `c1ccc2c(CNc3nc(N4CCCCC4)nc4ccccc34)ccnc2c1` [Compound 195, 2-(Piperidin-1-yl)-N-(quinolin-4-ylmethyl)quinazolin-4-amine], in test [2] (setting [3]), the MIC is 10 to 50 µM (≈ 3.69 to 18.5 µg/mL).
On the same count and under the same terms, next, `FC(F)(F)c1ccc(CNc2nc(N3CCCCC3)nc3ccccc23)cn1` [Compound 196, 2-(Piperidin-1-yl)-N-((6-(trifluoromethyl)pyridin-3-yl)methyl)quinazolin-4-amine hydrochloride]: 10 to 50 µM; `c1ccc(CNc2nc(N3CCCCCC3)nc3ccccc23)cc1` [Compound 197, 2-(Azepan-1-yl)-N-benzylquinazolin-4-amine]: 10 to 50 µM (≈ 3.32 to 16.6 µg/mL).
Regarding `OC[C@@H]1CCCN1c1nc(NCc2ccc(F)cc2)c2ccccc2n1` [Compound 198, (S)-(1-(4-(4-Fluorobenzylamino)quinazolin-2-yl)pyrrolidin-2-yl)methanol], the MIC in test [2] (setting [3]) is 50 to 128 µM (≈ 17.6 to 45.1 µg/mL).
On to `COC[C@@H]1CCCN1c1nc(NCc2ccc(F)cc2)c2ccccc2n1` [Compound 199, (S)—N-(4-Fluorobenzyl)-2-(2-(methoxymethyl)pyrrolidin-1-yl)quinazolin-4-amine], for which, in test [2] (setting [3]), the MIC was in the range of 10 to 50 µM (≈ 3.66 to 18.3 µg/mL).
Regarding `COC(=O)[C@@H]1CCCN1c1nc(NCc2ccc(F)cc2)c2ccccc2n1` [Compound 200, (S)-Methyl 1-(4-(4-fluorobenzylamino)quinazolin-2-yl)pyrrolidine-2-carboxylate], the MIC in test [2] (setting [3]) fell in the range of 50 to 128 µM (≈ 19 to 48.7 µg/mL).
As for `Fc1ccc(CNc2nc(N3CCN(Cc4ccccc4)CC3)nc3ccccc23)cc1` [Compound 201, 2-(4-Benzylpiperazin-1-yl)-N-(4-fluorobenzyl)quinazolin-4-amine], in test [2] (setting [3]), the MIC lay in the range of 10 to 50 µM (≈ 4.28 to 21.4 µg/mL).
Take `O=C(C1CC1)N1CCN(c2nc(NCc3ccc(F)cc3)c3ccccc3n2)CC1` [Compound 202, Cyclopropyl(4-(4-(4-fluorobenzylamino)quinazolin-2-yl)piperazin-1-yl)methanone hydrochloride]: the MIC in test [2] (setting [3]) fell in the range of 50 to 128 µM.
As for `O=C(C1CCCCC1)N1CCN(c2nc(NCc3ccc(F)cc3)c3ccccc3n2)CC1` [Compound 203, Cyclohexyl(4-(4-(4-fluorobenzylamino)quinazolin-2-yl)piperazin-1-yl)methanone], in test [2] (setting [3]), the MIC is 10 to 50 µM (≈ 4.48 to 22.4 µg/mL).
As for `O=C(c1ccccc1)N1CCN(c2nc(NCc3ccc(F)cc3)c3ccccc3n2)CC1` [Compound 204, (4-(4-(4-Fluorobenzylamino)quinazolin-2-yl)piperazin-1-yl)(phenyl)methanone], the MIC in test [2] (setting [3]) is 50 to 128 µM (≈ 22.1 to 56.5 µg/mL).
For `O=C(N1CCCC1)N1CCN(c2nc(NCc3ccc(F)cc3)c3ccccc3n2)CC1` [Compound 205, (4-(4-(4-Fluorobenzylamino)quinazolin-2-yl)piperazin-1-yl)(pyrrolidin-1-yl)methanone hydrochloride], in test [2] (setting [3]), the MIC is 50 to 128 µM.
For `CCOC(=O)CNc1nc(NCc2ccc(F)cc2)c2ccccc2n1` [Compound 206, Ethyl 2-(4-(4-fluorobenzylamino)quinazolin-2-ylamino)acetate hydrochloride], in test [2] (setting [3]), the MIC is 50 to 128 µM.
Regarding `COCCNc1nc(NCc2ccc(F)cc2)c2ccccc2n1` [Compound 207, N^4-(4-Fluorobenzyl)-N^2-(2-methoxyethyl)quinazoline-2,4-diamine], the MIC in test [2] (setting [3]) was in the range of 50 to 128 µM (≈ 16.3 to 41.8 µg/mL).
On to `Fc1ccc(CNc2nc(NCC3CCCCC3)nc3ccccc23)cc1` [Compound 208, N^2-(Cyclohexylmethyl)-N^4-(4-fluorobenzyl)quinazoline-2,4-diamine], for which, in test [2] (setting [3]), the MIC is 10 to 50 µM (≈ 3.64 to 18.2 µg/mL).
Same read-out and setting: next, `Fc1ccc(CNc2nc(NCCN3CCCCC3)nc3ccccc23)cc1` [Compound 209, N^4-(4-Fluorobenzyl)-N^2-(2-(piperidin-1-yl)ethyl)quinazoline-2,4-diamine hydrochloride]: 50 to 128 µM.
On to `Nc1nc(N2CCCCC2)nc2ccccc12` [compound 1, 2-(Piperidin-1-yl)quinazolin-4-amine, reference compound], for which the “MABA (TB growth inhibition, colourimetric assay)” value in test [2] (setting [3]) is reported as “−”.
For `Nc1nc(NCc2ccccc2)c2ccccc2n1` [compound 3, N^4-Benzylquinazoline-2,4-diamine, reference compound], the MIC in test [2] (setting [3]) was in the range of 50 to 128 µM (≈ 12.5 to 32 µg/mL).
